Experimental data as given in PubChem BioAssay (NCI).
“And” between values parts separate entries of the source, which are not always exact repeats. Equal values may be shown once.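 1) Cells in 96-well plates. 2) Compound, 48 h, 5 concentrations. 3) Linear interpolation between surrounding doses. 4) Unreached endpoint = highest concentration. Abbreviation: GI50, concentration required for 50% inhibition of growth. TGI denotes the concentration required for complete inhibition of growth.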

Legend:
Assay in all cases: DTP human tumour cell line panel, 48 h
SK-MEL-5 melanoma = test system: SK-MEL-5 melanoma
HCT-15 colon = test system: HCT-15 colon
A549 NSCLC = test system: A549 NSCLC
CAKI-1 renal = test system: CAKI-1 renal
IGROV1 ovarian = test system: IGROV1 ovarian
OVCAR-3 ovarian = test system: OVCAR-3 ovarian
HOP-62 NSCLC = test system: HOP-62 NSCLC
TK-10 renal = test system: TK-10 renal
DU-145 prostate = test system: DU-145 prostate
MCF7 breast = test system: MCF7 breast

C=Cc1cncc(C#N)c1CCc1c(C#N)cncc1C=C
GI50 (SK-MEL-5 melanoma): > 100 µM
TGI (SK-MEL-5 melanoma): > 100 µM
GI50 (HCT-15 colon): > 100 µM
TGI (HCT-15 colon): > 100 µM
GI50 (A549 NSCLC): > 100 µM
TGI (A549 NSCLC): > 100 µM
GI50 (CAKI-1 renal): > 10 µM
TGI (CAKI-1 renal): > 100 µM
GI50 (IGROV1 ovarian): > 100 µM
TGI (IGROV1 ovarian): > 100 µM
GI50 (OVCAR-3 ovarian): > 100 µM
TGI (OVCAR-3 ovarian): > 100 µM
GI50 (HOP-62 NSCLC): > 100 µM
TGI (HOP-62 NSCLC): > 100 µM
GI50 (TK-10 renal): > 100 µM
TGI (TK-10 renal): > 100 µM

CC[C@@]1(O)C(=O)OCc2c1cc1n(c2=O)Cc2cc3cc4c(cc3nc2-1)OCO4
TGI (SK-MEL-5 melanoma): 0.0721 µM and < 0.0281 µM
TGI (HCT-15 colon): > 58.9 µM
TGI (A549 NSCLC): 0.177 µM and 0.136 µM
GI50 (IGROV1 ovarian): < 0.0341 µM
TGI (IGROV1 ovarian): 0.187 µM
GI50 (OVCAR-3 ovarian): 0.0135 µM
TGI (OVCAR-3 ovarian): 0.0793 µM
GI50 (TK-10 renal): 0.111 µM
TGI (TK-10 renal): 2.79 µM and 17.3 µM
TGI (DU-145 prostate): 0.00572 µM

COc1ccc2c(CN3CCCC[C@H]3C(=O)O)cc3cc4c(cc3c2c1)OCO4
GI50 (SK-MEL-5 melanoma): 1.25 µM
TGI (SK-MEL-5 melanoma): 2.5 µM
GI50 (HCT-15 colon): 1.4 µM
TGI (HCT-15 colon): 12.7 µM
GI50 (A549 NSCLC): 1.1 µM
TGI (A549 NSCLC): 4.25 µM
GI50 (CAKI-1 renal): 0.747 µM
TGI (CAKI-1 renal): 3.37 µM
GI50 (MCF7 breast): 0.366 µM
TGI (MCF7 breast): 2.8 µM
GI50 (OVCAR-3 ovarian): 0.688 µM
TGI (OVCAR-3 ovarian): 3.41 µM
GI50 (HOP-62 NSCLC): 4.33 µM
TGI (HOP-62 NSCLC): > 100 µM
GI50 (TK-10 renal): 5.47 µM
TGI (TK-10 renal): 60.2 µM
GI50 (DU-145 prostate): 5.72 µM
TGI (DU-145 prostate): 24.7 µM

C[C@H](OCc1ccccc1)C(=O)N1CCS(=O)(=O)N2CCC[C@@H]2C1=O
TGI (SK-MEL-5 melanoma): > 100 µM
TGI (HCT-15 colon): > 100 µM
TGI (A549 NSCLC): > 100 µM
TGI (CAKI-1 renal): > 100 µM
TGI (IGROV1 ovarian): > 100 µM
TGI (OVCAR-3 ovarian): > 100 µM
TGI (HOP-62 NSCLC): > 100 µM
TGI (TK-10 renal): > 100 µM

COc1ccc(/C=C/c2cc(OC)c(OC)c(OC)c2)cc1
TGI (SK-MEL-5 melanoma): > 85.4 µM
TGI (HCT-15 colon): > 93.5 µM
TGI (A549 NSCLC): > 100 µM
TGI (CAKI-1 renal): 98.4 µM
TGI (IGROV1 ovarian): > 100 µM
TGI (OVCAR-3 ovarian): 17.7 µM
TGI (HOP-62 NSCLC): 60.1 µM
TGI (TK-10 renal): > 100 µM

CCOC(=O)/C(C1=NCCN1)=C(\O)c1ccccc1
TGI (SK-MEL-5 melanoma): > 100 µM
TGI (HCT-15 colon): > 100 µM
TGI (A549 NSCLC): > 100 µM
TGI (CAKI-1 renal): > 100 µM
TGI (IGROV1 ovarian): > 100 µM
TGI (OVCAR-3 ovarian): > 100 µM
TGI (HOP-62 NSCLC): > 100 µM

OC1(C23CC4CC(CC(C4)C2)C3)CSCC1(O)C12CC3CC(CC(C3)C1)C2 (stereo not drawn)
TGI (SK-MEL-5 melanoma): > 100 µM
TGI (A549 NSCLC): > 100 µM
TGI (CAKI-1 renal): > 100 µM
TGI (IGROV1 ovarian): > 100 µM
TGI (OVCAR-3 ovarian): > 100 µM
TGI (HOP-62 NSCLC): > 100 µM
TGI (TK-10 renal): > 100 µM

CCCCCCCCCCCCCCCC(=O)OCC1OC(n2cc(F)c(=O)[nH]c2=O)C(N)C(O)C1O (stereo not drawn)
TGI (SK-MEL-5 melanoma): 33.1 µM
TGI (A549 NSCLC): 33.1 µM
TGI (CAKI-1 renal): 37.5 µM
TGI (OVCAR-3 ovarian): 9.72 µM
TGI (HOP-62 NSCLC): 37.4 µM
TGI (TK-10 renal): 46.5 µM

O=C1NC(Nc2ccccc2)=NC(C(F)(F)F)(C(F)(F)F)N1
TGI (SK-MEL-5 melanoma): 79.6 µM
TGI (HCT-15 colon): > 100 µM
TGI (A549 NSCLC): > 100 µM
TGI (IGROV1 ovarian): > 100 µM
TGI (MCF7 breast): > 100 µM
TGI (OVCAR-3 ovarian): > 100 µM
TGI (HOP-62 NSCLC): > 100 µM
TGI (TK-10 renal): > 100 µM
TGI (DU-145 prostate): > 100 µM

CCOC(=O)CCC(NC(=O)OCc1ccccc1)C(=O)NC(CCC(=O)OCC)C(=O)NC(CCC(=O)OCC)C(=O)NC(CCC(=O)OCC)C(=O)NC(CCC(=O)OCC)C(=O)NC(CCC(=O)OCC)C(=O)NC(CCC(=O)OCC)C(=O)OCC (stereo not drawn)
TGI (SK-MEL-5 melanoma): > 100 µM
TGI (HCT-15 colon): > 100 µM
TGI (A549 NSCLC): > 100 µM
TGI (CAKI-1 renal): > 100 µM
TGI (MCF7 breast): > 100 µM
TGI (OVCAR-3 ovarian): > 100 µM
TGI (HOP-62 NSCLC): > 100 µM
TGI (TK-10 renal): > 100 µM
TGI (DU-145 prostate): > 100 µM

Cc1ccccc1C1OC(=O)c2ccc3ccccc3c21 (stereo not drawn)
TGI (SK-MEL-5 melanoma): 13 µM
TGI (HCT-15 colon): 9.44 µM
TGI (A549 NSCLC): 16.6 µM
TGI (CAKI-1 renal): 88.4 µM
TGI (IGROV1 ovarian): > 31.6 µM
TGI (OVCAR-3 ovarian): 16.2 µM
TGI (HOP-62 NSCLC): 5.35 µM
TGI (TK-10 renal): > 31.6 µM

O=C(C/C(=N/O)C(=O)NC1=C(Cl)C(=O)c2ccccc2C1=O)CC(c1ccccc1)c1c(O)c2ccccc2oc1=O (stereo not drawn)
TGI (SK-MEL-5 melanoma): 2.38 µM
TGI (HCT-15 colon): 14.4 µM
TGI (A549 NSCLC): 35.3 µM
TGI (CAKI-1 renal): 32.6 µM
TGI (IGROV1 ovarian): > 100 µM
TGI (MCF7 breast): 26.8 µM
TGI (OVCAR-3 ovarian): 15.2 µM
TGI (DU-145 prostate): 11.2 µM

CCCCCCC[CH2][Sn]([CH2]CCCCCCC)([O]c1cccc2cccnc12)[O]c1cccc2cccnc12
GI50 (SK-MEL-5 melanoma): 1.65 µM
TGI (SK-MEL-5 melanoma): 3.21 µM
GI50 (HCT-15 colon): 2.53 µM
TGI (HCT-15 colon): 10.8 µM
GI50 (A549 NSCLC): 3.18 µM
TGI (A549 NSCLC): 12 µM
GI50 (CAKI-1 renal): 2.54 µM
TGI (CAKI-1 renal): 8.41 µM
GI50 (IGROV1 ovarian): 2.19 µM
TGI (IGROV1 ovarian): 5.26 µM
GI50 (OVCAR-3 ovarian): 1.85 µM
TGI (OVCAR-3 ovarian): 6.62 µM
GI50 (HOP-62 NSCLC): 2.11 µM
TGI (HOP-62 NSCLC): 3.67 µM
GI50 (TK-10 renal): 3.85 µM
TGI (TK-10 renal): 13.7 µM

Cc1cn(C2CC3C(COCN3O)O2)c(=O)[nH]c1=O (stereo not drawn)
TGI (SK-MEL-5 melanoma): > 100 µM
TGI (HCT-15 colon): > 100 µM
TGI (A549 NSCLC): > 100 µM
TGI (IGROV1 ovarian): > 100 µM
TGI (OVCAR-3 ovarian): > 100 µM
TGI (HOP-62 NSCLC): > 100 µM
TGI (TK-10 renal): > 100 µM

COc1ccc2c(c1)C(=O)c1ccc(OC)cc1C2=S
TGI (SK-MEL-5 melanoma): > 100 µM
TGI (HCT-15 colon): > 100 µM
TGI (A549 NSCLC): > 100 µM
TGI (IGROV1 ovarian): > 100 µM
TGI (OVCAR-3 ovarian): > 100 µM
TGI (HOP-62 NSCLC): > 100 µM
TGI (TK-10 renal): > 100 µM

CC(=O)N1CC(C)(C)c2c(C)c(O)c(C)c(C)c21
TGI (SK-MEL-5 melanoma): > 100 µM
TGI (HCT-15 colon): > 100 µM
TGI (A549 NSCLC): > 100 µM
TGI (IGROV1 ovarian): > 100 µM
TGI (MCF7 breast): > 100 µM
TGI (OVCAR-3 ovarian): > 100 µM
TGI (HOP-62 NSCLC): > 100 µM
TGI (TK-10 renal): > 100 µM
TGI (DU-145 prostate): > 100 µM

C[C@@]12CCC(=O)c3coc(c31)C(=O)c1cc3c(cc12)C(=O)C=CC3=O
GI50 (SK-MEL-5 melanoma): > 1 µM
TGI (SK-MEL-5 melanoma): > 1 µM and 28.3 µM
GI50 (HCT-15 colon): > 1 µM
TGI (HCT-15 colon): > 1 µM and 32.7 µM
GI50 (A549 NSCLC): > 1 µM
TGI (A549 NSCLC): > 100 µM
GI50 (CAKI-1 renal): > 1 µM
TGI (CAKI-1 renal): > 1 µM and 38.4 µM
GI50 (IGROV1 ovarian): > 1 µM
TGI (IGROV1 ovarian): > 1 µM and 59.3 µM
GI50 (OVCAR-3 ovarian): > 1 µM
TGI (OVCAR-3 ovarian): > 1 µM and 32.7 µM
GI50 (HOP-62 NSCLC): > 1 µM
TGI (HOP-62 NSCLC): > 100 µM
GI50 (TK-10 renal): > 1 µM
TGI (TK-10 renal): > 61 µM

COc1cc2ccnc3c2c(c1OC)-c1coc(SC)c1-3
TGI (SK-MEL-5 melanoma): > 100 µM
TGI (HCT-15 colon): > 100 µM
TGI (A549 NSCLC): > 100 µM
TGI (CAKI-1 renal): > 100 µM
TGI (IGROV1 ovarian): > 100 µM
TGI (HOP-62 NSCLC): > 100 µM
TGI (TK-10 renal): > 100 µM

CC(=O)[CH-]C(=O)c1ccccc1.CC(=O)[CH-]C(=O)c1ccccc1.CC[O-].CC[O-].[Hf+4]
GI50 (SK-MEL-5 melanoma): > 100 µM
TGI (SK-MEL-5 melanoma): > 100 µM
GI50 (HCT-15 colon): > 100 µM
TGI (HCT-15 colon): > 100 µM
GI50 (A549 NSCLC): > 100 µM
TGI (A549 NSCLC): > 100 µM
GI50 (CAKI-1 renal): > 100 µM
TGI (CAKI-1 renal): > 100 µM
GI50 (IGROV1 ovarian): > 100 µM
TGI (IGROV1 ovarian): > 100 µM
GI50 (OVCAR-3 ovarian): > 100 µM
TGI (OVCAR-3 ovarian): > 100 µM
GI50 (HOP-62 NSCLC): > 100 µM
TGI (HOP-62 NSCLC): > 100 µM

Cc1nc(Nc2ccccc2)sc1C(=O)CC(=O)C(=O)Nc1c(C(C)C)cccc1C(C)C
TGI (SK-MEL-5 melanoma): > 100 µM
TGI (HCT-15 colon): > 100 µM
TGI (A549 NSCLC): > 100 µM
TGI (CAKI-1 renal): > 100 µM
TGI (IGROV1 ovarian): > 100 µM
TGI (OVCAR-3 ovarian): > 100 µM
TGI (HOP-62 NSCLC): > 100 µM
TGI (TK-10 renal): > 100 µM
